Entries after “also recorded” stand apart in the source; their conditions may differ. Where two headings read alike, the source gives them in different places.
Tests used:
[1] = target: T1, Cdk2(ES) = Cdk2(F80C,C177A) (Homo sapiens, UniProt P24941, C177A/F80C); assay: quantitative irreversible tethering (qIT): rate of cysteine modification of Cdk2(ES); type: binding; details: for rate enhancement factor (REF): rate with Cdk2(ES) relative to rate with GSH, thiol 5 μM
T1 construct: GST (N, cleaved yes); made in house; host or cells: E. coli Tuner(DE3)
Description: Figure 2 Comparison of previous and current applications of Quantitative irreversible tethering (qIT). a) Overview of rate determination. A cysteine‐containing biomolecule is treated with covalent fragments under pseudo‐first‐order conditions. Reaction progress is followed by discrete measurement of free cysteine concentration by using the fluorogenic probe CPM, and rate constants (k obs) are derived from exponential regression analysis. b) Comparison of the reactivity profile of each fragment with the POI and GSH typically classes them as unreactive, reactive but non‐selective or reactive and selective. c) Quantification of kinetic POI/GSH selectivity facilitates hit identification. d) The observed rate of reaction between the POI and hit fragment is determined at a range of ligand concentrations by using qIT. Subsequent hyperbolic regression analysis is used to derive K i and k inact to facilitate comprehensive covSAR analysis.
Therefore, we set out to develop novel classes of electrophile sensitive kinase inhibitors using a covalent fragment approach. Accordingly, we screened a 138‐member library of diverse cysteine‐reactive fragments at 500 μM against Cdk2(ES) and GSH by using the qIT platform and monitored the kinetics of cysteine‐modification over 24 hours. […] Using three standard deviations over the geometric mean REF as the statistical cut‐off for defining hit fragments (REF >27.9) yielded two acrylamide fragments, tetrahydroquinoline 1 (REF=81) and pyrimidine S1 (REF=64) for further investigation (Figures 3c and S2). […]
D. Rate determination by qIT
Reaction-plate setup: Each well of a 96-well PCR plate was charged with 60–100 µL of target thiol (GSH or protein, 10 µM) and 4% w/v TCEP-agarose beads in 100 mM phosphate buffer (pH 7.5 or 8) and cooled to 4 °C. Reactions were started by addition of an equal volume of pre-cooled electrophile solution (1 mM, 2% DMSO) in 0.1 M phosphate buffer (final concentra-tion: thiol = 5 µM, electrophile = 0.5 mM, 2% w/v TCEP-agarose beads), with a minimum of 4 wells per plate used as DMSO/thiol only controls. After mixing, TCEP-agarose was pelleted by centrifugation (1,300 rpm, 1 min) and the plate incu-bated at 4 °C. CPM Quench: At a series of time points (typically around 0.25, 0.5, 1, 2, 6, 24, 48, 72 and 120 hours after reac-tion initiation), 3 µL aliquots of each reaction were quenched into a 384-well fluorescence plate (Corning – black, NBS) where each well was charged with 27 µL of CPM solution (1.39 µM) in 100 mM phosphate buffer (pH 7.5) (final concentration: thiol = 0.5 µM, CPM = 1.25 µM). Quenching was typically performed in duplicate and fluorescence plates were incubated at room temperature for 60 minutes before fluorescence intensity (excitation/emission: 384/470 nm) was measured on an EnVisionTM plate reader. Analysis: All analysis was performed using Prism 8.0 software (GraphPad). For each time point, the fluorescence of each reaction was normalized relative Cdk2(ES)/GSH only control = maximum signal, DMSO only = minimum signal. The normalized fluorescence for each reaction was plotted against time. A one phase exponential decay was fitted to each plot (Constraints: Y(0) > 0.8; 0 < plateau = 0), yielding a pseudo first-order rate constant.
Cdk2 mutations were introduced by PCR and cloned into pGEX6P1 Cdk2 (552), a gift from Jonathon Pines (Addgene plasmid # 61845) used to express GST-Cdk2(WT). GST-Cdk2(ES) = GST-Cdk2(F80C,C177A). All constructs were verified by se-quencing. pGEX6P1 cyclin A2 (amino acids 173-432) was generated by PCR and restriction digestion. GST-CAK1 was con-structed by PCR amplification of S.cerevisiae genomic DNA and the product cloned into pKEG-KG. All protein expression was performed using an adapted autoinduction protocol:[8] Plasmids were transformed into E. coli Tuner(DE3) and cultures grown in autoinduction media at 37 °C until OD600 = 0.9. The cultures were then incubated at 18 °C for a further 40 hours before […]

Cdk2(ES) = target: T2, Cdk2(ES) (Homo sapiens, UniProt P24941, C177A/F80C); assay: intact-protein mass spectrometry of covalent modification; type: binding; details: 0.5 mM acrylamide; 2 h for acrylamide 1
T2 construct: GST (N, cleaved yes); made in house; host or cells: E. coli Tuner(DE3)
Text: To orthogonally validate the results from the qIT assay, we undertook a mass spectrometric study to obtain a direct measurement of both the extent and site of covalent fragment modification. […] To confirm C80 as the site of modification, the 1‐Cdk2(ES) complex was digested with trypsin and the resulting peptides analysed by MALDI mass spectrometry. […] Tandem mass spectrometric analysis of this ion enabled confirmatory sequencing of the peptide and unambiguous assignment of C80 as the site of modification (Figure 4b).
See High-Throughput Kinetic Analysis for Target-Directed Covalent Ligand Discovery for full library details.4 In brief, Acryla-mide fragments were synthesized from amine precursors; 14,000 primary and secondary amines were selected from Enamine’s commercial collection with molecular weight < 250 Da, from which 235 unique Bemis-Murcko frameworks were generated.[5] […] The physiochemical properties of the final library were calculated using DataWarrior[6] and found to broadly comply with the ‘Rule of 3’ guidelines. […]
Reaction-plate setup: Each well of a 96-well PCR plate was charged with 60–100 µL of target thiol (GSH or protein, 10 µM) and 4% w/v TCEP-agarose beads in 100 mM phosphate buffer (pH 7.5 or 8) and cooled to 4 °C. […] For each time point, the fluorescence of each reaction was normalized relative Cdk2(ES)/GSH only control = maximum signal, DMSO only = minimum signal. […]

[2] = fragment 0.5 mM, Cdk2(ES) 5 μM, read-out: Cdk2(ES): kobs/[I]

| kinact/KI at 500 µM [1, 2] [M⁻¹ s⁻¹] | kinact/KI at 500 µM ([1]; Cdk2(ES) (5 μM) + 6 (500 μM), Figure 6c, read-out: kobs/[I] with Cdk2(ES)) [M⁻¹ s⁻¹] | covalent SAR by REF-based qIT analysis ([1]; compared with acrylamide 1 or parent analogue) | rate of reaction with Cdk2(ES) relative to acrylamide 1 ([1]; qIT) | Structure (SMILES) | rate enhancement factor (REF) ([1]; fragment 0.5 mM) | covalent modification of Cdk2(ES) (Cdk2(ES)) |
| --- | --- | --- | --- | --- | --- | --- |
| – | – | – | – | C=CC(=O)Nc1ccc(-c2ncccn2)cc1 [S1] | 64 | complete mono‐modification |
| 1.31 | – | – | – | C=CC(=O)N1CCCc2cc(C(=O)OC)ccc21 [compound 1] | 81 | fully modifies; also recorded: complete mono‐modification |
| 0.1 | 0.105 | maintained a similar REF | ten times more slowly than acrylamide 1 | C=CC(=O)N1CCN(CC)c2ccccc21 [compound 6] | – | – |
